Experimental data: patent US20220089598A1, “INHIBITORS OF HUMAN IMMUNODEFICIENCY VIRUS REPLICATION” (VIIV HEALTHCARE UK (No. 5) LIMITED, priority 2018, published 2022)

Columns and labels:
[1] = system: recombinant NL4-3 virus (Renilla luciferase) in MT-2 cells; assay: HIV cell culture assay (antiviral activity, luciferase readout); type: cell-based; settings: Renilla, NL43
Procedure: HIV cell culture assay—MT-2 cells, 293T cells and the proviral DNA clone of NL4-3 virus were obtained from the NIH AIDS Research and Reference Reagent Program. MT-2 cells were propagated in RPMI 1640 media supplemented with 10% heat inactivated fetal bovine serum (FBS), 100 μg/ml penicillin G and up to 100 units/mL streptomycin. The 293T cells were propagated in DMEM media supplemented with 10% heat inactivated FBS, 100 μg/mL penicillin G and 100 μg/mL streptomycin. A recombinant NL4-3 proviral clone, in which a section of the nef gene was replaced with the Renilla luciferase gene, was used to make the reference virus used in these studies. The recombinant virus was prepared through transfection of the recombinant NL4-3 proviral clone into 293T cells using Transit-293 Transfection Reagent from Mirus Bio LLC (Madison, Wis.). Supernatent was harvested after 2-3 days and the amount of virus present was titered in MT-2 cells using luciferase enzyme activity as a marker by measuring luciferase enzyme activity. Luciferase was quantitated using the EnduRen Live Cell Substrate from Promega (Madison, Wis.). Antiviral activities of compounds toward the recombinant virus were quantified by measuring luciferase activity in MT-2 cells infected for 4-5 days with the recombinant virus in the presence of serial dilutions of the compound.
The 50% effective concentration (EC50) was calculated by using the exponential form of the median effect equation where (Fa)=1/[1+(ED50/drug conc.)m] (Johnson V A, Byington R T. Infectivity Assay. In Techniques in HIV Research. ed. Aldovini A, Walker B D. 71-76. New York: Stockton Press. 1990).

[2] = Compound cytotoxicity, XTT-based colorimetric assay; type: cell-based; settings: human; uninfected MT2 cells, day 4, XTT assay
Procedure: Compound cytotoxicity and the corresponding CC50 values were determined using the same protocol as described in the antiviral assay except that uninfected cells were used. Cytotoxicity was assessed on day 4 in uninfected MT2 cells by using a XTT (2,3-bis[2-Methoxy-4-nitro-5-sulfophenyl]-2H-tetrazolium-5-carboxyanilide inner salt)-based colorimetric assay (Sigma-Aldrich, St Louis, Mo.).

Compound	EC50 [1]	CC50 at 4 day [2]
Cn1nc(NS(C)(=O)=O)c2c(Cl)ccc(-n3c([C@H](Cc4cc(F)cc(F)c4)NC(=O)Cn4nc(C(F)F)c5c4C(F)(F)[C@@H]4C[C@H]54)nc4nc(-c5cccc(S(C)(=O)=O)c5)ccc4c3=O)c21 (atropisomer, axis not shown; (P)) [Example 23, N—((S)-1-((3P)-3-(4-chloro-1-methyl-3-(methylsulfonamido)-1H-indazol-7-yl)-7-(3-(methylsulfonyl)phenyl)-4-oxo-3,4-dihydropyrido[2,3-d]pyrimidin-2-yl)-2-(3,5-difluorophenyl)ethyl)-2-((3bS,4aR)-3-(difluoromethyl)-5,5-difluoro-3b,4,4a,5-tetrahydro-1H-cyclopropa[3,4]cyclopenta[1,2-c]pyrazol-1-yl)acetamide]	0.065 nM	> 100 nM
Cn1nc(NS(C)(=O)=O)c2c(Cl)ccc(-n3c([C@H](Cc4cc(F)cc(F)c4)NC(=O)Cn4nc(C(F)(F)F)c5c4C(F)(F)[C@@H]4C[C@H]54)nc4nc(-c5ccc(F)cc5F)ccc4c3=O)c21 (atropisomer, axis not shown; (P)) [Example 24, N—((S)-1-((3P)-3-(4-chloro-1-methyl-3-(methylsulfonamido)-1H-indazol-7-yl)-7-(2,4-difluorophenyl)-4-oxo-3,4-dihydropyrido[2,3-d]pyrimidin-2-yl)-2-(3,5-difluorophenyl)ethyl)-2-((3bS,4aR)-5,5-difluoro-3-(trifluoromethyl)-3b,4,4a,5-tetrahydro-1H-cyclopropa[3,4]cyclopenta[1,2-c]pyrazol-1-yl)acetamide]	0.067 nM	> 500 nM
Cn1nc(NS(C)(=O)=O)c2c(Cl)ccc(-n3c([C@H](Cc4cc(F)cc(F)c4)NC(=O)Cn4nc(C(F)F)c5c4C(F)(F)[C@@H]4C[C@H]54)nc4nc(-c5ccc(Cl)cc5Cl)ccc4c3=O)c21 (atropisomer, axis not shown; (P)) [Example 25, N—((S)-1-((3P)-3-(4-chloro-1-methyl-3-(methylsulfonamido)-1H-indazol-7-yl)-7-(2,4-dichlorophenyl)-4-oxo-3,4-dihydropyrido[2,3-d]pyrimidin-2-yl)-2-(3,5-difluorophenyl)ethyl)-2-((3bS,4aR)-3-(difluoromethyl)-5,5-difluoro-3b,4,4a,5-tetrahydro-1H-cyclopropa[3,4]cyclopenta[1,2-c]pyrazol-1-yl)acetamide]	0.42 nM	> 100 nM
COc1c(F)ccc(-c2ccc3c(=O)n(-c4ccc(Cl)c5c(NS(C)(=O)=O)nn(C)c45)c([C@H](Cc4cc(F)cc(F)c4)NC(=O)Cn4nc(C(F)F)c5c4C(F)(F)[C@@H]4C[C@H]54)nc3n2)c1F (atropisomer, axis not shown; (P)) [Example 26, N—((S)-1-((3P)-3-(4-chloro-1-methyl-3-(methylsulfonamido)-1H-indazol-7-yl)-7-(2,4-difluoro-3-methoxyphenyl)-4-oxo-3,4-dihydropyrido[2,3-d]pyrimidin-2-yl)-2-(3,5-difluorophenyl)ethyl)-2-((3bS,4aR)-3-(difluoromethyl)-5,5-difluoro-3b,4,4a,5-tetrahydro-1H-cyclopropa[3,4]cyclopenta[1,2-c]pyrazol-1-yl)acetamide]	0.062 nM	> 100 nM
CS(=O)(=O)Nc1nn(CC(F)(F)F)c2c(-n3c([C@H](Cc4cc(F)cc(F)c4)NC(=O)Cn4nc(C(F)F)c5c4C(F)(F)[C@@H]4C[C@H]54)nc4nc(-c5ccccc5F)ccc4c3=O)ccc(Cl)c12 (atropisomer, axis not shown; (P)) [Example 27, N—((S)-1-((3P)-3-(4-chloro-3-(methylsulfonamido)-1-(2,2,2-trifluoroethyl)-1H-indazol-7-yl)-7-(2-fluorophenyl)-4-oxo-3,4-dihydropyrido[2,3-d]pyrimidin-2-yl)-2-(3,5-difluorophenyl)ethyl)-2-((3bS,4aR)-3-(difluoromethyl)-5,5-difluoro-3b,4,4a,5-tetrahydro-1H-cyclopropa[3,4]cyclopenta[1,2-c]pyrazol-1-yl)acetamide]	0.088 nM	> 500 nM
Cn1nc(NS(C)(=O)=O)c2c(Cl)ccc(-n3c([C@H](Cc4cc(F)cc(F)c4)NC(=O)Cn4nc(C(F)F)c5c4C(F)(F)[C@@H]4C[C@H]54)nc4nc(-c5c(F)cc(F)cc5F)ccc4c3=O)c21 (atropisomer, axis not shown; (P)) [Example 28, N—((S)-1-((3P)-3-(4-chloro-1-methyl-3-(methylsulfonamido)-1H-indazol-7-yl)-4-oxo-7-(2,4,6-trifluorophenyl)-3,4-dihydropyrido[2,3-d]pyrimidin-2-yl)-2-(3,5-difluorophenyl)ethyl)-2-((3bS,4aR)-3-(difluoromethyl)-5,5-difluoro-3b,4,4a,5-tetrahydro-1H-cyclopropa[3,4]cyclopenta[1,2-c]pyrazol-1-yl)acetamide]	0.032 nM	> 100 nM
Cn1nc(NS(C)(=O)=O)c2c(Cl)ccc(-n3c([C@H](Cc4cc(F)cc(F)c4)NC(=O)Cn4nc(C(F)F)c5c4C(F)(F)[C@@H]4C[C@H]54)nc4nc(-c5ccc(F)c(Cl)c5)ccc4c3=O)c21 (atropisomer, axis not shown; (P)) [Example 29, N—((S)-1-((3P)-3-(4-chloro-1-methyl-3-(methylsulfonamido)-1H-indazol-7-yl)-7-(3-chloro-4-fluorophenyl)-4-oxo-3,4-dihydropyrido[2,3-d]pyrimidin-2-yl)-2-(3,5-difluorophenyl)ethyl)-2-((3bS,4aR)-3-(difluoromethyl)-5,5-difluoro-3b,4,4a,5-tetrahydro-1H-cyclopropa[3,4]cyclopenta[1,2-c]pyrazol-1-yl)acetamide]	0.12 nM	> 100 nM
Cn1nc(NS(C)(=O)=O)c2c(Cl)ccc(-n3c([C@H](Cc4cc(F)cc(F)c4)NC(=O)Cn4nc(C(F)F)c5c4C(F)(F)[C@@H]4C[C@H]54)nc4nc(-c5ccc(F)c(C#N)c5)ccc4c3=O)c21 (atropisomer, axis not shown; (P)) [Example 30, N—((S)-1-((3P)-3-(4-chloro-1-methyl-3-(methylsulfonamido)-1H-indazol-7-yl)-7-(3-cyano-4-fluorophenyl)-4-oxo-3,4-dihydropyrido[2,3-d]pyrimidin-2-yl)-2-(3,5-difluorophenyl)ethyl)-2-((3bS,4aR)-3-(difluoromethyl)-5,5-difluoro-3b,4,4a,5-tetrahydro-1H-cyclopropa[3,4]cyclopenta[1,2-c]pyrazol-1-yl)acetamide]	0.078 nM	> 100 nM
COc1nc2nc([C@H](Cc3cc(F)cc(F)c3)NC(=O)Cn3nc(C(F)(F)F)c4c3C(F)(F)[C@@H]3C[C@H]43)n(-c3ccc(Cl)c4c(NS(C)(=O)=O)nn(C)c34)c(=O)c2cc1-c1ccccc1F (atropisomer, axis not shown; (P)) [Example 31, N—((S)-1-((3P)-3-(4-chloro-1-methyl-3-(methylsulfonamido)-1H-indazol-7-yl)-6-(2-fluorophenyl)-7-methoxy-4-oxo-3,4-dihydropyrido[2,3-d]pyrimidin-2-yl)-2-(3,5-difluorophenyl)ethyl)-2-((3bS,4aR)-5,5-difluoro-3-(trifluoromethyl)-3b,4,4a,5-tetrahydro-1H-cyclopropa[3,4]cyclopenta[1,2-c]pyrazol-1-yl)acetamide]	0.16 nM	> 500 nM
